Measurements from paper PMC10648852, “Molecular drivers of resistance to sulbactam-durlobactam in contemporary clinical isolates of Acinetobacter baumannii” (Antimicrobial Agents and Chemotherapy, 2023).

How the values were obtained:
Test in all cases: microbe, parasite or virus in culture
[1] = system: ABC clinical isolates with SUL-DUR MIC > 4 µg/mL; format: cell-based, Acinetobacter baumannii-calcoaceticus complex
Summary of the method: (§1)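 SUL-DUR combines serially twofold-diluted sulbactam with durlobactam held at 4 µg/mL; MICs obtained by CLSI-standard broth microdilution and read against CLSI breakpoints when these exist.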

[2] = system: A. baumannii clinical isolates; format: cell-based
Summary of the method: as §1

[3] = system: A. nosocomialis clinical isolate; format: cell-based; conditions: isolate ARC7023 (IHMA 2118812), France, BSI, 2019
Summary of the method: as §1

[4] = system: A. pittii clinical isolates; format: cell-based
Summary of the method: as §1

With `NCC[C@H](O)C(=O)N[C@@H]1C[C@H](N)[C@@H](O[C@H]2O[C@H](CN)[C@@H](O)[C@H](O)[C@H]2O)[C@H](O)[C@H]1O[C@H]1O[C@H](CO)[C@@H](O)[C@H](N)[C@H]1O` [AMK] the MIC50 [1] was greater than 64 µg/mL, the MIC90 [1] was greater than 64 µg/mL and the “MIC Max” value [1] was greater than 64 µg/mL. For the same compound, the “MIC Min” value [1] was 2 µg/mL, the “%NS (% non-susceptibility)” value ([1]; 64 non-clonal ABC isolates, 2023 CLSI breakpoints plus FDA breakpoint of 4 µg/mL for SUL-DUR) was 75% and the MIC ([2]; isolate ARC6644 (IHMA 1420327), Mexico, UTI, 2016) was greater than 64 µg/mL. It also gave an MIC ([2]; isolate ARC6645 (IHMA 1435703), France, UTI, 2016) of 2 µg/mL, an MIC ([2]; isolate ARC6646 (IHMA 1484127), United States, RTI, 2016) greater than 64 µg/mL and an MIC ([2]; isolate ARC6647 (IHMA 1386786), Argentina, RTI, 2016) greater than 64 µg/mL. The MIC ([2]; isolate ARC6648 (IHMA 1407634), Spain, RTI, 2016) was 4 µg/mL, the MIC ([2]; isolate ARC6650 (IHMA 1457337), Argentina, RTI, 2016) was 16 µg/mL and the MIC ([2]; isolate ARC6652 (IHMA 1465642), Belgium, RTI, 2016) was 4 µg/mL. The MIC ([2]; isolate ARC6653 (IHMA 1308777), Vietnam, RTI, 2016) was greater than 64 µg/mL, the MIC ([2]; isolate ARC6799 (IHMA 1562935), Spain, UTI, 2017) was 64 µg/mL and the MIC ([2]; isolate ARC6800 (IHMA 1557526), Turkey, RTI, 2017) was greater than 64 µg/mL. The MIC ([2]; isolate ARC6801 (IHMA 1662094), Thailand, RTI, 2017) was 32 µg/mL, the MIC ([2]; isolate ARC6802 (IHMA 1557073), Spain, UTI, 2017) was greater than 64 µg/mL and the MIC ([2]; isolate ARC6803 (IHMA 1589408), Belgium, UTI, 2017) was 4 µg/mL. For the same compound, the MIC ([2]; isolate ARC6805 (IHMA 1558650), United States, RTI, 2017) was greater than 64 µg/mL, the MIC ([2]; isolate ARC6808 (IHMA 1557168), Spain, RTI, 2017) was 2 µg/mL and the MIC ([2]; isolate ARC6809 (IHMA 1699528), Guatemala, RTI, 2017) was 32 µg/mL. The MIC ([2]; isolate ARC6810 (IHMA 1699548), Guatemala, RTI, 2017) was greater than 64 µg/mL, the MIC ([2]; isolate ARC6812 (IHMA 1699530), Guatemala, RTI, 2017) was 4 µg/mL and the MIC ([2]; isolate ARC6813 (IHMA 1699543), Guatemala, UTI, 2017) was 32 µg/mL. For the same compound, the MIC ([2]; isolate ARC6814 (IHMA 1699512), Guatemala, RTI, 2017) was greater than 64 µg/mL, the MIC ([2]; isolate ARC6815 (IHMA 1699513), Guatemala, RTI, 2017) was 64 µg/mL and the MIC ([2]; isolate ARC6816 (IHMA 1699521), Guatemala, RTI, 2017) was greater than 64 µg/mL. The MIC ([2]; isolate ARC6817 (IHMA 1699523), Guatemala, RTI, 2017) was 16 µg/mL, the MIC ([2]; isolate ARC6818 (IHMA 1683261), Thailand, RTI, 2017) was 2 µg/mL and the MIC ([2]; isolate ARC6819 (IHMA 1683267), Thailand, RTI, 2017) was greater than 64 µg/mL. For the same compound, the MIC ([2]; isolate ARC6820 (IHMA 1647876), Argentina, RTI, 2017) was 4 µg/mL, the MIC ([2]; isolate ARC6821 (IHMA 1699517), Guatemala, RTI, 2017) was 2 µg/mL and the MIC ([2]; isolate ARC6822 (IHMA 1637626), Guatemala, RTI, 2017) was 8 µg/mL. The MIC ([2]; isolate ARC6823 (IHMA 1620872), Greece, SSSI, 2017) was greater than 64 µg/mL, the MIC ([2]; isolate ARC6824 (IHMA 1625487), Argentina, BSI, 2017) was 64 µg/mL and the MIC ([2]; isolate ARC6937 (IHMA 1562926), Spain, UTI, 2017) was 64 µg/mL. For the same compound, the MIC ([2]; isolate ARC6950 (IHMA 1820064), Israel, RTI, 2018) was greater than 64 µg/mL, the MIC ([2]; isolate ARC6953 (IHMA 1909827), Turkey, IAI, 2018) was 8 µg/mL and the MIC ([2]; isolate ARC6954 (IHMA 1838192), Guatemala, SSSI, 2018) was 16 µg/mL. For the same compound, the MIC ([2]; isolate ARC6955 (IHMA 1825425), United States, RTI, 2018) was 64 µg/mL, the MIC ([2]; isolate ARC7008 (IHMA 2009813), Thailand, BSI, 2019) was greater than 64 µg/mL and the MIC ([2]; isolate ARC7009 (IHMA 2043611), United States, UTI, 2019) was greater than 64 µg/mL. The MIC ([2]; isolate ARC7010 (IHMA 2043398), United States, RTI, 2019) was greater than 64 µg/mL, the MIC ([2]; isolate ARC7011 (IHMA 2104553), Germany, RTI, 2019) was greater than 64 µg/mL and the MIC ([2]; isolate ARC7012 (IHMA 2010001), Thailand, RTI, 2019) was greater than 64 µg/mL. The MIC ([2]; isolate ARC7013 (IHMA 1962831), Argentina, RTI, 2019) was greater than 64 µg/mL, the MIC ([2]; isolate ARC7014 (IHMA 2045328), Guatemala, IAI, 2019) was greater than 64 µg/mL and the MIC ([2]; isolate ARC7015 (IHMA 2045327), Guatemala, UTI, 2019) was 32 µg/mL. For the same compound, the MIC ([2]; isolate ARC7016 (IHMA 2148441), Brazil, BSI, 2019) was greater than 64 µg/mL, the MIC ([2]; isolate ARC7017 (IHMA 2148446), Brazil, BSI, 2019) was 64 µg/mL and the MIC ([2]; isolate ARC7018 (IHMA 2045454), Guatemala, IAI, 2019) was 32 µg/mL. For the same compound, the MIC ([2]; isolate ARC7019 (IHMA 2114463), Thailand, RTI, 2019) was greater than 64 µg/mL, the MIC ([2]; isolate ARC7020 (IHMA 2045326), Guatemala, RTI, 2019) was greater than 64 µg/mL and the MIC ([2]; isolate ARC7021 (IHMA 1966347), Guatemala, RTI, 2019) was 64 µg/mL. The MIC ([2]; isolate ARC7022 (IHMA 2045319), Guatemala, IAI, 2019) was greater than 64 µg/mL, the MIC ([2]; isolate ARC7024 (IHMA 2059448), Turkey, RTI, 2019) was greater than 64 µg/mL and the MIC ([2]; isolate ARC7025 (IHMA 2002121), Spain, RTI, 2019) was 2 µg/mL. The MIC ([2]; isolate ARC7026 (IHMA 2104494), Guatemala, BSI, 2019) was 64 µg/mL, the MIC ([2]; isolate ARC7082 (IHMA 2160640), Belgium, BSI, 2020) was greater than 64 µg/mL and the MIC ([2]; isolate ARC7083 (IHMA 2163687), United States, RTI, 2020) was greater than 64 µg/mL. For the same compound, the MIC ([2]; isolate ARC7084 (IHMA 2189596), Germany, RTI, 2020) was greater than 64 µg/mL, the MIC ([2]; isolate ARC7085 (IHMA 2205747), Guatemala, IAI, 2020) was greater than 64 µg/mL and the MIC ([2]; isolate ARC7086 (IHMA 2207563), Israel, RTI, 2020) was greater than 64 µg/mL. For the same compound, the MIC ([2]; isolate ARC7088 (IHMA 2215554), Turkey, BSI, 2020) was greater than 64 µg/mL, the MIC ([2]; isolate ARC7089 (IHMA 2240345), Argentina, BSI, 2020) was 2 µg/mL and the MIC ([2]; isolate ARC7090 (IHMA 2244410), Poland, RTI, 2020) was greater than 64 µg/mL. The MIC ([2]; isolate ARC7091 (IHMA 2244564), Australia, RTI, 2020) was 16 µg/mL, the MIC ([2]; isolate ARC7092 (IHMA 2258772), United States, BSI, 2020) was greater than 64 µg/mL and the MIC ([2]; isolate ARC7093 (IHMA 2258783), United States, RTI, 2020) was greater than 64 µg/mL. The MIC ([2]; isolate ARC7094 (IHMA 2296423), Turkey, RTI, 2020) was 64 µg/mL, the MIC ([2]; isolate ARC7095 (IHMA 2320843), Turkey, BSI, 2020) was greater than 64 µg/mL and the MIC ([2]; isolate ARC7156 (IHMA 2455450), Greece, RTI, 2021) was greater than 64 µg/mL. For the same compound, the MIC ([2]; isolate ARC7158 (IHMA 2523738), Italy, BSI, 2021) was greater than 64 µg/mL, the MIC ([2]; isolate ARC7159 (IHMA 2456229), Malaysia, RTI, 2021) was greater than 64 µg/mL and the MIC ([2]; isolate ARC7160 (IHMA 2458626), Thailand, RTI, 2021) was greater than 64 µg/mL. The MIC ([2]; isolate ARC7161 (IHMA 2429252), Ukraine, RTI, 2021) was greater than 64 µg/mL, the MIC ([2]; isolate ARC7162 (IHMA 2411847), United States, BSI, 2021) was greater than 64 µg/mL and the MIC ([2]; isolate ARC7163 (IHMA 2477704), United States, BSI, 2021) was greater than 64 µg/mL. For the same compound, the MIC [3] was 4 µg/mL, the MIC ([4]; isolate ARC6949 (IHMA 1898982), Romania, RTI, 2018) was greater than 64 µg/mL and the MIC ([4]; isolate ARC6951 (IHMA 1776233), Philippines, RTI, 2018) was 32 µg/mL. It also gave an MIC ([4]; isolate ARC6952 (IHMA 1899008), Romania, RTI, 2018) greater than 64 µg/mL and an MIC ([4]; isolate ARC7087 (IHMA 2212062), Colombia, BSI, 2020) of 8 µg/mL.
